The record followed here is patent US20210292765A1, “COMPOSITIONS COMPRISING INTERMEDIATE NON-CODING RNA REGULATORS MODULATING THE EXPRESSION OF ETV6 OR FOXO1 AND USES THEREOF” (University of Exeter, priority 2018, published 2021).

Assay type in all cases: cell-based
Data set [1] relates to late passage primary human fibroblasts. In words: Cell proliferation index by Ki67 immunofluorescence. The settings on record: for increase in proliferative index: gene knockdown with morpholino oligonucleotides (10 μM). The procedure:
The proliferative capacity of treated cells was assessed by Ki67 and BrdU staining and by cell counts. Late passage primary human fibroblasts at PD=63 were seeded at 1×10^4 cells per well in 3 biological replicates in 24-well plates, allowed to grow for 10 days and then assayed for cell proliferation by ki67 staining. For assessment of cells in S phase, late passage primary human fibroblasts at PD=63 were seeded at 1×10^4 cells per coverslip as 3 biological replicates in 24-well plates, allowed to grow for 10 days and then were incubated with 5-Bromo-2′-deoxy-uridine (BrdU) for 24 hrs. BrdU incorporation was determined by the 5-Bromo-2′-deoxy-uridine labeling and detection kit I following instructions of the manufacturer (Roche Molecular Biochemicals). BrdU positive cells were visualized and counted by fluorescence microscopy. Cell counts were carried out manually in 3 biological replicates in treated and vehicle-only cultures following trypsinisation and suspension of cells and are presented as mean (+/−SEM). Following treatment, cells were fixed for 10 min with 4% PFA and permeabilized with 0.025% Triton and 10% serum in PBS for 1 hour. Ki-67 staining was carried out by rabbit monoclonal antibody (ab16667, Abcam, UK) at a 1:400 dilution and samples were incubated overnight at 4° C., followed by FITC-conjugated secondary goat anti-rabbit antibody (1:400) for 1 hour, and nuclei were counterstained with DAPI. Coverslips were mounted on slides in DAKO fluorescence mounting medium (S3023; Dako, Santa Clara, USA). The proliferation index was determined by counting the percentage of Ki67 positive cells from at least 400 nuclei from each biological replicate at 400× magnification under a Leica D4000 fluorescence microscope.

Data set [2] deals with late passage primary human fibroblast cells. Kind of data set: SASP protein levels in culture medium (MesoScale multiplex ELISA). The settings on record: 24 hrs, culture medium from senescent cells. The procedure:
Late passage primary human fibroblast cells at PD=63 were seeded at 6×10^4 cells per well in a 6 well plate, cultured for 10 days and then treated with at 1 μM or 10 μM trametinib (MEK/ERK inhibitor) or SH-6 (AKT inhibitor) for 24 hours. Cell supernatants were then harvested and stored at −80° C. Levels of GMCSF, IFNγ, IL1β, IL2, IL6, IL8, IL10, IL-12p70, and TNFα SASP components were measured in cell supernatants from treated and vehicle-only control cells using the K15007B MesoScale Discovery multiplex ELISA immunoassay (MSD, Rockville, USA) in 4 biological replicates. Proteins were quantified relative to a standard curve using a Sector Imager SI-6000 according to the manufacturer's instructions.

Data set [3] deals with senescent primary human fibroblasts. In words: Splicing factor transcript expression by qRTPCR (TLDA). The settings on record: 24 hrs, control = 1.00. The procedure: Late passage primary human fibroblasts at PD=63 were seeded at 6×10^4 cells per well as 3 biological replicates in 6-well plates, allowed to grow for 10 days and then treated with the ERK inhibitor trametinib or the AKT inhibitor SH-6 at 1 μM or 10 μM for 24 hrs. Vehicle (DMSO) only controls were also included under the same growth conditions. The expression levels of 20 splicing factor transcripts previously associated with age, replicative senescence or lifespan in our previous work (Harries et al. 2011; Holly et al. 2013; Lee et al. 2016) were then assessed by qRTPCR. RNA was extracted using TRI Reagent® (Life Technologies, Foster City USA) according to the manufacturer's instructions. Total RNA (100 ng) was reverse transcribed in 20 μl reactions using the Superscript III VILO kit (Life Technologies). Transcript expression was then quantified in duplicate for each biological replicate using TaqMan Low Density Array (TLDA) on QuantStudio 12K Flex (Applied Biosystems, Foster City, USA). Cycling conditions were 1 cycle each of 50° C. for 2 min, 94.5° C. for 10 min and then 40 cycles of 97° C. for 30 s and 57.9° C. for 1 min. The reaction mixes included 50 μl TaqMan Fast Universal PCR Mastermix (Life Technologies), 30 μl dH2O and 20 μl cDNA template. 100 μl reaction mixture was dispensed into the TLDA card chamber and centrifuged twice for 1 min at 1000 rpm. Transcript expression was assessed by the Comparative Ct approach, relative to the IDH3B, GUSB and PP/A endogenous control genes and normalised to their expression in RNA from untreated late passage cells.
(In general: Real-time PCR tracks product formation cycle by cycle.)

Data set [4] has as its system late passage primary human fibroblasts. In words: Cellular senescence by SA-β-Gal staining. Conditions: gene knockdown with morpholino oligonucleotides (10 μM).
For data set [5] the test system is unchanged. In words: CDKN2A (p16) and CDKN1A (p21) expression by qRTPCR. Conditions: gene knockdown with morpholino oligonucleotides (10 μM).

Marks after values point to notes of the source that are not given here.

Regarding `CC(=O)Nc1cccc(-n2c(=O)n(C3CC3)c(=O)c3c(Nc4ccc(I)cc4F)n(C)c(=O)c(C)c32)c1` [Trametinib, trametinib], the “increase in proliferative index (Ki67 staining)” value in data set [1] (low dose (1 μM)) is listed as 31%. For the same compound, in data set [2] (1 uM), the “GM-CSF SASP protein expression” value is reported as 24.65*** percentage of the control value, the “IL1b SASP protein expression” value was 156.70** percentage of the control value, the “IL2 SASP protein expression” value is recorded as 50.72** percentage of the control value and the “IL6 SASP protein expression” value is recorded as 77.75 percentage of the control value. For the same compound, in data set [2] (1 uM), the “IL8 SASP protein expression” value is 44.42** percentage of the control value, the “IL10 SASP protein expression” value is reported as 34.37*** percentage of the control value, the “IL12p70 SASP protein expression” value is listed as 69.64 percentage of the control value and the “INF-g SASP protein expression” value is 95.08 percentage of the control value. The “TNFa SASP protein expression” value in data set [2] (1 uM) is on record as 104.61 percentage of the control value. For the same compound, in data set [2] (10 uM), the “GM-CSF SASP protein expression” value is given as 9.85*** percentage of the control value, the “IL1b SASP protein expression” value is listed as 50.35** percentage of the control value, the “IL2 SASP protein expression” value is 14.39*** percentage of the control value and the “IL6 SASP protein expression” value is recorded as 33.57*** percentage of the control value. Besides, in data set [2] (10 uM), the “IL8 SASP protein expression” value was 5.33*** percentage of the control value, the “IL10 SASP protein expression” value is recorded as 86.01 percentage of the control value, the “IL12p70 SASP protein expression” value was 77.78 percentage of the control value and the “INF-g SASP protein expression” value is 106.33 percentage of the control value. Moreover, the “TNFa SASP protein expression” value in data set [2] (10 uM) is 118.65 percentage of the control value. Besides, in data set [3] (1 uM), the “AKAP17A splicing factor mRNA expression” value is 2.01***, the “HNRNPA0 splicing factor mRNA expression” value was 2.38***, the “HNRNPA1 splicing factor mRNA expression” value is 1.52* and the “HNRNPA2B1 splicing factor mRNA expression” value is on record as 1.53*. In data set [3] (1 uM), the “HNRNPD splicing factor mRNA expression” value is given as 1.79*, the “HNRNPH3 splicing factor mRNA expression” value was 1.89***, the “HNRNPK splicing factor mRNA expression” value was 1.68*** and the “HNRNPM splicing factor mRNA expression” value is 1.46*. Besides, in data set [3] (1 uM), the “HNRNPUL2 splicing factor mRNA expression” value is reported as 1.63***, the “IMP3 splicing factor mRNA expression” value is 1.77***, the “LSM2 splicing factor mRNA expression” value is 0.85 and the “LSM14A splicing factor mRNA expression” value is 1.61**. Also, in data set [3] (1 uM), the “PNISR splicing factor mRNA expression” value is listed as 1.63**, the “SF3B1 splicing factor mRNA expression” value is 1.93***, the “SRSF1 splicing factor mRNA expression” value was 1.69* and the “SRSF2 splicing factor mRNA expression” value is 2.07**. Also, in data set [3] (1 uM), the “SRSF3 splicing factor mRNA expression” value was 1.64***, the “SRSF6 splicing factor mRNA expression” value is listed as 2.68***, the “SRSF7 splicing factor mRNA expression” value is recorded as 2.38*** and the “TRA2B splicing factor mRNA expression” value is recorded as 1.66*. Besides, in data set [3] (10 uM), the “AKAP17A splicing factor mRNA expression” value is reported as 0.74**, the “HNRNPA0 splicing factor mRNA expression” value is 1.11, the “HNRNPA1 splicing factor mRNA expression” value is 0.49*** and the “HNRNPA2B1 splicing factor mRNA expression” value is reported as 0.70***. Also, in data set [3] (10 uM), the “HNRNPD splicing factor mRNA expression” value is reported as 0.75**, the “HNRNPH3 splicing factor mRNA expression” value amounted to 0.95, the “HNRNPK splicing factor mRNA expression” value is reported as 1.02 and the “HNRNPM splicing factor mRNA expression” value is reported as 0.69***. Further, in data set [3] (10 uM), the “HNRNPUL2 splicing factor mRNA expression” value was 0.94, the “IMP3 splicing factor mRNA expression” value came out at 0.97, the “LSM2 splicing factor mRNA expression” value came to 0.82 and the “LSM14A splicing factor mRNA expression” value worked out at 1.18. Besides, in data set [3] (10 uM), the “PNISR splicing factor mRNA expression” value worked out at 1.11, the “SF3B1 splicing factor mRNA expression” value is given as 0.96, the “SRSF1 splicing factor mRNA expression” value was 0.68** and the “SRSF2 splicing factor mRNA expression” value is reported as 0.86*. In data set [3] (10 uM), the “SRSF3 splicing factor mRNA expression” value was 0.72***, the “SRSF6 splicing factor mRNA expression” value was 0.69***, the “SRSF7 splicing factor mRNA expression” value was 0.57*** and the “TRA2B splicing factor mRNA expression” value was 0.73**.

With “ETV6 morpholino: Antisense morpholino to 5′ untranslated region of ETV6: CATGTCTCACAGCGAGAGAGATCAG (all phosphorodiamidate morpholino (PMO))”, the “increase in proliferative index” value in data set [1] came to 36%. In data set [4], the “reduction in senescent cell load as measured by SA-β-Gal staining” value is recorded as roughly 18%. For the same compound, the “reduction in CDKN2A expression” value in data set [5] was 24%.

Take “FOXO1 morpholino: Antisense morpholino to 5′ untranslated region of FOXO1: TCCCCCAGCCGCAGGAGAGCCAAGA (all phosphorodiamidate morpholino (PMO))”: the “increase in proliferative index” value in data set [1] stood at 19%. The “reduction in senescent cell load as measured by SA-β-Gal staining” value in data set [4] is recorded as roughly 40%. In addition, in data set [5], the “reduction in CDKN2A expression” value is reported as 43%.
